Reference: patent US8101768B2, “Cyclic amine compound and pest control agent” (Nippon Soda Co., Ltd., priority 2004, dated 2012)

System: organophosphorous agent resistant two-spotted spider mites
Assay: Effect on Two-spotted Spider Mite (spray on kidney bean leaves)
Format: in vivo
Details: 125 ppm, water dispersible powder of Formulation Example 1 sprayed, 17 female adults, 25° C., 65% humidity, 3 days
Excerpt: Effect on Two-spotted Spider Mite
17 female adults of organophosphorous agent resistant two-spotted spider mites were inoculated onto the first leaves of kidney beans seeded onto 3.5 inch pots and germinated 7 to 10 days before, onto which each of liquid agents, diluted with water so as to adjust the respective concentration of the chemical compounds to 125 ppm according to the formulation of the water dispersible powder shown in the aforementioned Formulation Example 1, was sprayed. After they were left in a thermostatic chamber at 25° C. in 65% humidity for 3 days, the rate of killed adults was investigated. The examination was repeated twice. As the results, the following chemical compounds killed 100% of the adults.

| Structure (SMILES) | rate of killed adults [%] |
| --- | --- |
| CC(C)S(=O)(=O)Oc1cc(C(F)(F)F)ccc1OC1C2CCC1CN(c1ccc(C(F)(F)F)cn1)C2 (stereo not drawn) [5-164] | 100 |
| CCCN(C)c1cc(C(F)(F)F)ccc1OC1C2CCC1CN(c1ccc(C(F)(F)F)cn1)C2 (stereo not drawn) [5-191] | 100 |
| CCC(O)c1cc(C(F)(F)F)ccc1OC1CCN(c2ccc(C(F)(F)F)cn2)CC1 (stereo not drawn) [1-67] | 100 |
| CN(C)S(=O)(=O)Oc1cc(C(F)(F)F)ccc1OC1CC2CCC(C1)N2c1ccc(C(F)(F)F)cn1 (stereo not drawn) [2-155] | 100 |
| FC(F)(F)c1ccc(N2CC3CCC(C2)C3Oc2ccc(C(F)(F)F)cc2OCc2ccco2)nc1 (stereo not drawn) [5-206] | 100 |
| C=CCCOc1cc(C(F)(F)F)ccc1OC1C2CCC1CN(c1ccc(C(F)(F)F)cn1)C2 (stereo not drawn) [5-176] | 100 |
| CCCCc1cc(C(F)(F)F)ccc1O[C@H]1C[C@H]2CC[C@@H](C1)N2c1ccc(C(F)(F)F)cn1 [2-187, 3α-[2-butyl-4-(trifluoromethyl)phenoxy]-8-[5-(trifluoromethyl)-2-pyridyl]-8-azabicyclo[3.2.1]octane] | 100 |
| COCCOc1cc(C(F)(F)F)ccc1O[C@@H]1[C@@H]2CC[C@H]1CN(c1ccc(C#N)cn1)C2 [5-125] | 100 |
| CCCc1cc(Cl)ccc1OC1CCN(c2ccc(C(F)(F)F)cn2)CC1 [1-57] | 100 |
| CCC1COC(c2cc(C(F)(F)F)ccc2O[C@@H]2[C@@H]3CC[C@H]2CN(c2ccc(C(F)(F)F)cn2)C3)N1 (stereo partly drawn) [5-263] | 100 |
| CC(Cl)COc1cc(C(F)(F)F)ccc1OC1C2CCC1CN(c1ccc(C(F)(F)F)cn1)C2 (stereo not drawn) [5-138] | 100 |
| C=C=COc1cc(C(F)(F)F)ccc1OC1CCN(c2ccc(C(F)(F)F)cn2)CC1 [1-143] | 100 |
| CC=CCOc1cc(C(F)(F)F)ccc1OC1CC2CCC(C1)N2c1ccc(C(F)(F)F)cn1 (mixture of isomers) [2-145] | 100 |
| CCC(C)C(O)c1cc(C(F)(F)F)ccc1OC1CC2CCC(C1)N2c1ccc(C(F)(F)F)cn1 (stereo not drawn) [2-194] | 100 |
| CCON=Cc1cc(C(F)(F)F)ccc1OC1CC2CCC(C1)N2c1ccc(C(F)(F)F)cn1 (stereo not drawn) [2-203] | 100 |
| CCCN(CCC)c1cc(C(F)(F)F)ccc1OC1CCN(c2ccc(C(F)(F)F)cn2)CC1 [1-174] | 100 |
| C=CCOc1cc(C(F)(F)F)ccc1OC1CC2CCC(C1)N2c1ccc(C(F)(F)F)cn1 (stereo not drawn) [2-141] | 100 |
| O=C(OC1CCCC1)c1cc(C(F)(F)F)ccc1OC1CC2CCC(C1)N2c1ccc(C(F)(F)F)cn1 (stereo not drawn) [2-223] | 100 |
| O=C(OC1CCOC1)c1cc(C(F)(F)F)ccc1OC1CC2CCC(C1)N2c1ccc(C(F)(F)F)cn1 (stereo not drawn) [2-225] | 100 |
| FC(F)(F)c1ccc(N2[C@@H]3CC[C@H]2C[C@@H](Oc2ccc(C(F)(F)F)cc2SCC2CC2)C3)nc1 [2-166] | 100 |
| CCNc1cc(C(F)(F)F)ccc1OC1CCN(c2ccc(C(F)(F)F)cn2)CC1 [1-172] | 100 |
| C=CCCOc1cc(C(F)(F)F)ccc1OC1CC2CCC(C1)N2c1ccc(C(F)(F)F)cn1 (stereo not drawn) [2-144] | 100 |

| Structure (SMILES) | rate of killed adults [%] |
| --- | --- |
| COc1cc(C(F)(F)F)ccc1O[C@@H]1[C@@H]2CC[C@H]1CN(c1ccc(C(F)(F)F)cn1)C2 [5-89] | 100 |
| O=[N+]([O-])c1cc(C(F)(F)F)ccc1O[C@@H]1[C@@H]2CC[C@H]1CN(c1ccc(C(F)(F)F)cn1)C2 [5-38] | 100 |
| FC(F)(F)c1ccc(N2CC3CCC(C2)C3Oc2ccc(C(F)(F)F)cc2C2CC=CO2)nc1 (stereo not drawn) [5-235] | 100 |
| COCC(C)OC(=O)c1cc(C(F)(F)F)ccc1OC1CC2CCC(C1)N2c1ccc(C(F)(F)F)cn1 (stereo not drawn) [2-234] | 100 |
| CC(F)COc1cc(C(F)(F)F)ccc1OC1CC2CCC(C1)N2c1ccc(C(F)(F)F)cn1 (stereo not drawn) [2-181] | 100 |
| Cc1cc(F)ccc1OC1CCN(c2ccc(C(F)(F)F)cn2)CC1 [1-48] | 100 |
| C#CCON=Cc1cc(C(F)(F)F)ccc1OC1CC2CCC(C1)N2c1ccc(C(F)(F)F)cn1 (stereo not drawn) [2-221] | 100 |
| COCCc1cc(C(F)(F)F)ccc1O[C@@H]1[C@@H]2CC[C@H]1CN(c1ccc(C(F)(F)F)cn1)C2 [5-246] | 100 |
| CCCNc1cc(C(F)(F)F)ccc1OC1CC2CCC(C1)N2c1ccc(C(F)(F)F)cn1 (stereo not drawn) [2-160] | 100 |
| CCCOc1cc(C(F)(F)F)ccc1OC1CC2CCC(C1)N2c1ccc(Br)cn1 (stereo not drawn) [2-86] | 100 |
| CC(CCl)OC(=O)c1cc(C(F)(F)F)ccc1OC1CC2CCC(C1)N2c1ccc(C(F)(F)F)cn1 (stereo not drawn) [2-233] | 100 |
| COCCOc1cc(C(F)(F)F)ccc1OC1CCN(c2ccc(C(F)(F)F)cn2)CC1 [1-115] | 100 |
| CCCN(CCC)c1cc(C(F)(F)F)ccc1OC1CC2CCC(C1)N2c1ccc(C(F)(F)F)cn1 (stereo not drawn) [2-159] | 100 |
| CC(=O)OC(C)COc1cc(C(F)(F)F)ccc1O[C@@H]1[C@@H]2CC[C@H]1CN(c1ccc(C(F)(F)F)cn1)C2 (stereo partly drawn) [5-114] | 100 |
| OCCOc1cc(C(F)(F)F)ccc1OC1CC2CCC(C1)N2c1ccc(C(F)(F)F)cn1 (stereo not drawn) [2-115] | 100 |
| CCCNc1cc(C(F)(F)F)ccc1OC1CCN(c2ccc(C(F)(F)F)cn2)CC1 [1-173] | 100 |
| CCCS(=O)(=O)Oc1cc(C(F)(F)F)ccc1OC1C2CCC1CN(c1ccc(C(F)(F)F)cn1)C2 (stereo not drawn) [5-163] | 100 |
| CCCC(=O)Oc1cc(C(F)(F)F)ccc1OC1C2CCC1CN(c1ccc(C(F)(F)F)cn1)C2 (stereo not drawn) [5-199] | 100 |
| COCOCCOc1cc(C(F)(F)F)ccc1OC1CCN(c2ccc(C(F)(F)F)cn2)CC1 [1-117] | 100 |
| C=CC(C)OC(=O)c1cc(C(F)(F)F)ccc1OC1CC2CCC(C1)N2c1ccc(C(F)(F)F)cn1 (stereo not drawn) [2-235] | 100 |
| COCOCc1cc(O[C@@H]2[C@@H]3CC[C@H]2CN(c2ccc(C(F)(F)F)cn2)C3)ccc1C(F)(F)F [5-70] | 100 |
| CCCOCc1cc(C(F)(F)F)ccc1OC1CC2CCC(C1)N2c1ccc(C(F)(F)F)cn1 (stereo not drawn) [2-171] | 100 |

| Structure (SMILES) | rate of killed adults [%] |
| --- | --- |
| COCCCc1cc(C(F)(F)F)ccc1OC1CC2CCC(C1)N2c1ccc(C(F)(F)F)cn1 (stereo not drawn) [2-190] | 100 |
| [O-][S+](c1ccc(OC2CCN(c3ccc(C(F)(F)F)cn3)CC2)cc1)C(F)(F)F (stereo not drawn) [1-150] | 100 |
| FC(F)(F)c1ccc(N2CC3CCC(C2)C3Oc2ccc(C(F)(F)F)cc2OCC2CCO2)nc1 (stereo not drawn) [5-213] | 100 |
| Cc1coc(-c2cc(C(F)(F)F)ccc2OC2CC3CCC(C2)N3c2ccc(C(F)(F)F)cn2)n1 (stereo not drawn) [2-209] | 100 |
| CC1(C)COC(c2cc(C(F)(F)F)ccc2OC2CC3CCC(C2)N3c2ccc(C(F)(F)F)cn2)=N1 (stereo not drawn) [2-210] | 100 |
| CCCOc1cc(C(F)(F)F)ccc1O[C@@H]1[C@@H]2CC[C@H]1CN(c1ccc(C#N)cn1)C2 [5-96] | 100 |
| CC(C)=CCOc1cc(C(F)(F)F)ccc1OC1C2CCC1CN(c1ccc(C(F)(F)F)cn1)C2 (stereo not drawn) [5-139] | 100 |
| COC=Cc1cc(C(F)(F)F)ccc1O[C@@H]1[C@@H]2CC[C@H]1CN(c1ccc(C(F)(F)F)cn1)C2 [5-247] | 100 |
| FC(F)(F)c1ccc(OC2CCN(c3ccc(C(F)(F)F)cn3)C2)cc1 (stereo not drawn) [8-63, 3-[4-(trifluoromethyl)phenoxy]-1-[5-(trifluoromethyl)-2-pyridy]pyrrolidine] | 100 |
| CCCOc1cc(C(F)(F)F)ccc1O[C@H]1C[C@H]2CC[C@@H](C1)N2c1ccc(C(F)(F)F)cn1 [2-82, 3α-[2-propoxy-4-(trifluoromethyl)phenoxy]-8-[5-(trifluoromethyl)-2-pyridyl]-8-azabicyclo[3.2.1]octane] | 100 |
| COC(C)COc1cc(C(F)(F)F)ccc1OC1CC2CCC(C1)N2c1ccc(C(F)(F)F)cn1 (stereo not drawn) [2-130] | 100 |
| FC(F)(F)c1ccc(N2C3CCC2CC(Oc2ccc(C(F)(F)F)cc2OC2CCOC2)C3)nc1 (stereo not drawn) [2-179] | 100 |
| CCCOc1cc(C(F)(F)F)ccc1OC1CC2CCC(C1)N2c1ccc(Cl)cn1 (stereo not drawn) [2-85] | 100 |
| COC(C)(C)COc1cc(C(F)(F)F)ccc1OC1C2CCC1CN(c1ccc(C(F)(F)F)cn1)C2 (stereo not drawn) [5-130] | 100 |
| FC(F)(F)c1ccc(N2CC3CCC(C2)C3Oc2ccc(C(F)(F)F)cc2OCc2cccnc2)nc1 (stereo not drawn) [5-211] | 100 |
| CCC=Cc1cc(C(F)(F)F)ccc1OC1CC2CCC(C1)N2c1ccc(C(F)(F)F)cn1 (stereo not drawn) [2-186, 3α-[2-(buten-1-yl)-4-(trifluoromethyl)phenoxy]-8-[5-(trifluoromethyl)-2-pyridyl]-8-azabicyclo[3.2.1]octane] | 100 |
| CCCOc1cc(C(F)(F)F)ccc1OC1CC2CCC(C1)N2c1ccc(C(F)(F)F)c[n+]1[O-] (stereo not drawn) [2-83, 3α-[2-propoxy-4-(trifluoromethyl)phenoxy]-8-[5-(trifluoromethyl)-2-pyridyl-1-oxy]-8-azabicyclo[3.2.1]octane] | 100 |
| CCCCCOc1cc(C(F)(F)F)ccc1OC1CC2CCC(C1)N2c1ccc(C(F)(F)F)cn1 (stereo not drawn) [2-100] | 100 |
| CCCCOc1cc(C(F)(F)F)ccc1OC1CCN(c2ccc(C(F)(F)F)cn2)CC1 [1-101] | 100 |
| C=C(Cl)COc1cc(C(F)(F)F)ccc1OC1CC2CCC(C1)N2c1ccc(C(F)(F)F)cn1 (stereo not drawn) [2-183] | 100 |
| CCCSc1cc(C(F)(F)F)ccc1OC1CC2CCC(C1)N2c1ccc(C(F)(F)F)cn1 (stereo not drawn) [2-165] | 100 |
| CCC(C)Oc1cc(C(F)(F)F)ccc1OC1CC2CCC(C1)N2c1ccc(C(F)(F)F)cn1 (stereo not drawn) [2-177] | 100 |
